Assay results published in patent US11964980B2, “Crystalline forms of (S)-1-(4-fluorophenyl)-1-(2-(4-(6-(1-methyl-1H-pyrazol-4-yl)pyrrolo[2,1- f][1,2,4]triazin-4-yl)piperazinyl)-pyrimidin-5-yl)ethan-1-amine and methods of making” (Blueprint Medicines Corporation, priority 2019, dated 2024).
“Also recorded” adds a separate entry of the source.

System: patients with indolent systemic mastocytosis
Assay: Phase 2 PIONEER trial Part 1: safety
Format: in vivo, human
Protocol: This is a Phase 2, randomized, double-blind, placebo-controlled study comparing the efficacy and safety of Compound (I)+best supportive care (BSC) with placebo+BSC in patients with ISM and SSM whose symptoms are not adequately controlled by BSC. The study is conducted in three parts. In Part 1, the optimal dose Compound (I) (recommended phase 2 dose (RP2D)) was identified in patients with ISM. In Part 2, patients with ISM and SSM are randomly assigned to the RP2D of Compound (I) identified in Part 1+BSC, or to matching placebo+BSC. In Part 3, patients who have completed treatment in Part 1 or Part 2 of the study participate in a long-term extension, receiving Compound (I) at the RP2D+BSC.
In Part 1 of the study, approximately 40 patients were randomly assigned to 1 of 3 doses of Compound (I) or to placebo. Each dose-level cohort and placebo group in Part 1 was composed of 10 patients. The 3 dose levels of Compound (I) were tested in parallel: 25, 50, and 100 mg. Patients, study staff, and the Sponsor were blinded to treatment assignment.
Compound (I) was administered orally, once a day in continuous 28-day cycles. Patients were assessed weekly for the first 4 weeks, then every 4 weeks (until the RP2D was determined) for safety, laboratory monitoring, and quality of life (QoL) assessments. Intensive pharmacokinetic (PK) sampling was performed in all patients. The ISM-SAF was completed once a day. After completion of 12 weeks of treatment, BM and skin biopsy were repeated for MC quantification and skin photographs were taken in patients with baseline CM.
Part 1 of the PIONEER trial was designed to determine the RP2D by evaluating three doses of Compound (I) (25 mg, 50 mg and 100 mg QD) versus placebo. Key eligibility criteria include adults with ISM confirmed by central pathology review of bone marrow biopsy (according to WHO criteria) and moderate-to-severe symptom burden despite best supportive care medicines. Overall, 39 patients were enrolled in Part 1 across four concurrent cohorts, consisting of 10 patients each in the Compound (I) dose cohorts and nine patients in the placebo cohort.

With `Cn1cc(-c2cc3c(N4CCN(c5ncc([C@@](C)(N)c6ccc(F)cc6)cn5)CC4)ncnn3c2)cn1` [Compound (I), (S)-1-(4-fluorophenyl)-1-(2-(4-(6-(1-methyl-1H-pyrazol-4-yl)pyrrolo[2,1-f][1,2,4]triazin-4-yl)piperazin-1-yl)pyrimidin-5-yl)ethan-1-amine] the “Grade of all adverse events reported” value (25 mg QD dose cohort) was “Grade 1 or 2”, the “Patients with serious AEs, Grade 3 or higher AEs, or dose modifications” value (25 mg QD dose cohort) was “No patients” and the “Grade ≥3 AEs” value (25 mg once daily cohort) was “No grade ≥3 AEs”. For the same compound, the “% of subjects with ≥1 AE” value (25 mg, n = 10, any grade) was 100%, the “AE Bone Pain” value (25 mg, n = 10, any grade) was 0% and the “AE Diarrhea” value (25 mg, n = 10, any grade) was 0%. The “AE Dizziness” value (25 mg, n = 10, any grade) was 30%, the “AE Face edema” value (25 mg, n = 10, any grade) was 10% and the “AE Fatigue” value (25 mg, n = 10, any grade) was 40%. For the same compound, the “AE Headache” value (25 mg, n = 10, any grade) was 30%, the “AE Nausea” value (25 mg, n = 10, any grade) was 10% and the “AE Periorbital edema” value (25 mg, n = 10, any grade) was 0%. The “AE Peripheral edema” value (25 mg, n = 10, any grade) was 10%, the “% of subjects with ≥1 AE” value (25 mg, n = 10, grade 3) was 0% and the “AE Bone Pain” value (25 mg, n = 10, grade 3) was 0%. The “AE Diarrhea” value (25 mg, n = 10, grade 3) was 0%, the “AE Dizziness” value (25 mg, n = 10, grade 3) was 0% and the “AE Face edema” value (25 mg, n = 10, grade 3) was 0%. The “AE Fatigue” value (25 mg, n = 10, grade 3) was 0%, the “AE Headache” value (25 mg, n = 10, grade 3) was 0% and the “AE Nausea” value (25 mg, n = 10, grade 3) was 0%. The “AE Periorbital edema” value (25 mg, n = 10, grade 3) was 0%, the “AE Peripheral edema” value (25 mg, n = 10, grade 3) was 0% and the “% of subjects with ≥1 AE” value (50 mg, n = 10, any grade) was 80%. For the same compound, the “AE Bone Pain” value (50 mg, n = 10, any grade) was 0%, the “AE Diarrhea” value (50 mg, n = 10, any grade) was 40% and the “AE Dizziness” value (50 mg, n = 10, any grade) was 30%. For the same compound, the “AE Face edema” value (50 mg, n = 10, any grade) was 0%, the “AE Fatigue” value (50 mg, n = 10, any grade) was 10% and the “AE Headache” value (50 mg, n = 10, any grade) was 30%. For the same compound, the “AE Nausea” value (50 mg, n = 10, any grade) was 60%, the “AE Periorbital edema” value (50 mg, n = 10, any grade) was 20% and the “AE Peripheral edema” value (50 mg, n = 10, any grade) was 20%. For the same compound, the “% of subjects with ≥1 AE” value (50 mg, n = 10, grade 3) was 20%, the “AE Bone Pain” value (50 mg, n = 10, grade 3) was 0% and the “AE Diarrhea” value (50 mg, n = 10, grade 3) was 10%. For the same compound, the “AE Dizziness” value (50 mg, n = 10, grade 3) was 0%, the “AE Face edema” value (50 mg, n = 10, grade 3) was 0% and the “AE Fatigue” value (50 mg, n = 10, grade 3) was 0%. The “AE Headache” value (50 mg, n = 10, grade 3) was 10%, the “AE Nausea” value (50 mg, n = 10, grade 3) was 10% and the “AE Periorbital edema” value (50 mg, n = 10, grade 3) was 0%. The “AE Peripheral edema” value (50 mg, n = 10, grade 3) was 0%, the “% of subjects with ≥1 AE” value (100 mg, n = 10, any grade) was 90% and the “AE Bone Pain” value (100 mg, n = 10, any grade) was 0%. The “AE Diarrhea” value (100 mg, n = 10, any grade) was 30%, the “AE Dizziness” value (100 mg, n = 10, any grade) was 40% and the “AE Face edema” value (100 mg, n = 10, any grade) was 40%. For the same compound, the “AE Fatigue” value (100 mg, n = 10, any grade) was 10%, the “AE Headache” value (100 mg, n = 10, any grade) was 30% and the “AE Nausea” value (100 mg, n = 10, any grade) was 40%. For the same compound, the “AE Periorbital edema” value (100 mg, n = 10, any grade) was 30%, the “AE Peripheral edema” value (100 mg, n = 10, any grade) was 20% and the “% of subjects with ≥1 AE” value (100 mg, n = 10, grade 3) was 40%. For the same compound, the “AE Bone Pain” value (100 mg, n = 10, grade 3) was 0%, the “AE Diarrhea” value (100 mg, n = 10, grade 3) was 10% and the “AE Dizziness” value (100 mg, n = 10, grade 3) was 0%. The “AE Face edema” value (100 mg, n = 10, grade 3) was 0%, the “AE Fatigue” value (100 mg, n = 10, grade 3) was 0% and the “AE Headache” value (100 mg, n = 10, grade 3) was 10%. For the same compound, the “AE Nausea” value (100 mg, n = 10, grade 3) was 0%, the “AE Periorbital edema” value (100 mg, n = 10, grade 3) was 0% and the “AE Peripheral edema” value (100 mg, n = 10, grade 3) was 0%. The Tolerability (all doses (25, 50, 100 mg QD)) was “well-tolerated” and the “Discontinuation of treatment due to AEs” value (all doses, as of data cutoff) was “no discontinuations for adverse effects; also recorded: no patients discontinued treatment due to AEs”.
